Experimental data taken from patent US11680047B2, “Enhanced erythropoiesis and iron metabolism” (FibroGen, Inc., priority 2003, dated 2023).
Marks after values point to notes of the source that are not given here.

Experiments:
[1] = Total serum iron levels in rats treated twice weekly for 93 days; type: in vivo, rat
Description: Compounds were generally administered orally by gavage or IV administration. Animals treated by oral gavage received a 4-10 ml/kg volume of either 0.5% carboxymethyl cellulose (CMC; Sigma-Aldrich, St. Louis Mo.) with or without 0.1% Polysorbate 80 (0 mg/kg/day) or varying doses of a compound of the present invention (e.g., a HIF prolyl hydroxylase inhibitor) in 0.5% CMC, with or without 0.1% Polysorbate 80, using various dosing regimens. Blood samples were collected at appropriate intervals during treatment from, e.g., tail vein (rats), or abdominal vein or cardiocentesis (mice or rats). Generally, animals were anesthetized with isoflurane and blood samples were collected into MICROTAINER serum separator tubes (Becton-Dickinson, Franklin Lakes N.J.). For measurement of serum components, the tubes were incubated at room temperature for 30 minutes, and then centrifuged at 8,000 rpm at 4° C. for 10 minutes. The serum fraction was then processed and analyzed for the presence of specific components, e.g., serum iron (assay performed by Quality Clinical Labs, Mountain View, Calif.). For determination of hematocrit, blood samples were collected into MICROTAINER EDTA-2K tubes (Becton-Dickinson); EDTA-blood was then drawn into 75 mm×1.1-1.2 mm I.D. capillary tubes (Chase Scientific Glass, Inc., Rockwood Tenn.) to approximately % length, one end of the tube was sealed with CRITOSEAL sealant (Sherwood Medical Company), and the tubes were centrifuged in a J-503M MICROHEMATOCRIT centrifuge (Jorgensen Laboratories, Inc., Loveland Colo.) at 12,000 rpm for 5 minutes. Hematocrit was read against a reader card. When indicated, complete blood count (CBC) analysis, including blood hemoglobin level, reticulocyte number, and hematocrit, was performed by Quality Clinical Labs (Mountain View, Calif.).
Male and female rats were treated twice weekly (Monday and Thursday) with various concentrations (0, 20, 60, or 150 mg/kg) of compound A for 93 days. Total serum iron levels were determined.

VCAM-1 = assay: IL-1β induced VCAM-1 expression in HUVEC; type: cell-based, human; conditions: IL-1β 1 ng/ml, 1 day
Description: To investigate the effect of HIF prolyl hydroxylase inhibition on IL-1β induced VCAM-1 expression, HUVEC (human umbilical vein endothelial cells) were stimulated with IL-1β in the absence or presence of various concentrations of compound B or compound C for 1 day. VCAM expression was then measured.

[2] = tested on: Transferrin Receptor (TFR2); assay: Microarray gene expression in Hep3B cells: transferrin receptor 2; type: cell-based, human; conditions: 2 μM
Description: Hep3B cells (ATCC No. HB-8064) were grown in DMEM containing 8% fetal bovine serum. Hep3B cells were seeded into 6-well culture dishes at ˜500,000 cells per well. After 8 hours, the media was changed to DMEM containing 0.5% fetal bovine serum and the cells were incubated for an additional 16 hours. Compound B or compound D was added to the cells (2 μM final concentration) and the cells were incubated for various times. Control cells (no compound treatment, addition of DMSO alone) were harvested at 0, 6 and 48 hours. Harvested cells were assessed for cell viability (GUAVA), or added to RNA extraction buffer (RNeasy, Qiagen) and stored at −20° C. for subsequent RNA purification. Replicate microarrays were generated using RNA isolated from replicate experiments conducted on different days. Total RNA was isolated from cells using the RNeasy kit (Qiagen).
RNA was precipitated in 0.3 M sodium acetate (pH 5.2), 50 ng/ml glycogen, and 2.5 volumes of ethanol for one hour at −20° C. Samples were centrifuged and pellets were washed with cold 80% ethanol, dried, and resuspend in water. Double stranded cDNA was synthesized using a T7-(dT)24 first strand primer (Affymetrix, Inc., Santa Clara Calif.) and the SUPERSCRIPT CHOICE system (Invitrogen) according to the manufacturer's instructions. The final cDNA was extracted with an equal volume of 25:24:1 phenol:chloroform:isoamyl alcohol using a PHASE LOCK GEL insert (Brinkman, Inc., Westbury N.Y.). The aqueous phase was collected and cDNA was precipitated using 0.5 volumes of 7.5 M ammonium acetate and 2.5 volumes of ethanol. Alternatively, cDNA was purified using the GENECHIP sample cleanup module (Affymetrix) according to the manufacturer's instructions.
Biotin-labeled cRNA was synthesized from the cDNA in an in vitro […] (IVT) reaction using a BIOARRAY HighYield RNA transcript labeling kit (Enzo Diagnostics, Inc., Farmingdale N.Y.) according to the manufacturer's instructions. Final labeled product was purified and fragmented using the GENECHIP sample cleanup module (Affymetrix) according to the manufacturer's instructions.
Hybridization cocktail was prepared by bringing […] probe to […] in 1× hybridization buffer (100 mM MES, 1 M [Na^+], 20 mM EDTA, 0.01% Tween 20), 100 µg/ml herring sperm DNA, 500 µg/ml acetylated BSA, 0.03 nM contol oligo B2 (Affymetrix), and 1×GENECHIP eukaryotic hybridization control (Affymetrix). The cocktail was sequentially incubated at 99° C. for 5 minutes and 45° C. for 5 minutes, and then centrifuged for 5 minutes. The Human Genome U133A array (Affymetrix) was brought to room temperature and then prehybridized with 1× hybridization buffer at 45° C. for 10 minutes with rotation. The buffer was then replaced with […] hybridization cocktail and the array was hybridized for 16 hours at 45° C. at 60 rpm with counter balance. Following hybridization, arrays were washed once with 6×SSPE, 0.1% Tween 20, and then washed and stained using R-phycoerythrin-conjugated streptavidin (Molecular Probes, Eugene Oreg.), goat anti-streptavidin antibody (Vector Laboratories, Burlingame Calif.), and a GENECHIP Fluidics Station 400 instrument (Affymetrix) according to the manufacturer's micro_1v1 protocol (Affymetrix). Arrays were analyzed using a GENEARRAY scanner (Affymetrix) and Microarray Suite software (Affymetrix).
The Human Genome U133A array (Affymetrix) represents all sequences in the Human Unigene database build 133 (National Center for Biotechnology Information, Bethesda Md.), including approximately 14,500 well-characterized human genes.
RNA quality was monitored by capillary electrophoresis (Agilent Bioanalyzer). Hybridization cocktails were prepared as described (Affymetrix), and hybridized to Affymetrix human U133A arrays containing 22,283 probe sets. Array performance was analyzed with Affymetrix MicroArray Suite (MAS) software and individual probe sets were assigned “present”, “marginal, and “absent” calls according to software defaults. […]

Row | Structure (SMILES) | Serum Iron Female Rats (Mean +/− SD) ([1]; 20 mg/kg twice weekly) | Serum Iron Female Rats (Mean +/− SD) ([1]; 60 mg/kg twice weekly) | Serum Iron Female Rats (Mean +/− SD) ([1]; 150 mg/kg twice weekly) [µg/dL] | Serum Iron Male Rats (Mean +/− SD) ([1]; 20 mg/kg twice weekly) [µg/dL] | Serum Iron Male Rats (Mean +/− SD) ([1]; 60 mg/kg twice weekly) | Serum Iron Male Rats (Mean +/− SD) ([1]; 150 mg/kg twice weekly) | inhibition of IL-1β induced VCAM-1 expression (VCAM-1) | Transferrin Receptor (TFR2) fold-increase in mRNA levels above control ([2]; 1 hr) [fold] | Transferrin Receptor (TFR2) fold-increase in mRNA levels above control ([2]; 3 hr) [fold] | Transferrin Receptor (TFR2) fold-increase in mRNA levels above control ([2]; 6 hr) [fold] | Transferrin Receptor (TFR2) fold-increase in mRNA levels above control ([2]; 12 hr) [fold] | Transferrin Receptor (TFR2) fold-increase in mRNA levels above control ([2]; 24 hr) [fold] | Transferrin Receptor (TFR2) fold-increase in mRNA levels above control ([2]; 48 hr) [fold]
1 | O=C(O)CNC(=O)c1nc(Cl)c2ccccc2c1O [Compound A, [(1-Chloro-4-hydroxy-isoquinoline-3-carbonyl)-amino]-acetic acid] | 505 +/− 41 * µg/dL | 445 +/− 46 * µg/dL | 399 ± 117 | 198 ± 64 | 357 +/− 111 * µg/dL | 307 +/− 142 * µg/dL | – | – | – | – | – | – | –
2 | O=C(O)CNC(=O)c1ncc2cc(Oc3ccccc3)ccc2c1O [Compound B, [(4-Hydroxy-7-phenoxy-isoquinoline-3-carbonyl)-amino]-acetic acid] | – | – | – | – | – | – | does-dependent inhibition of IL-1β induced VCAM-1 expression | 0.575 | 0.558 | 0.822 | 1.253 | 2.522 | 4.169
